Common to all, as to assay: inhibition of tumour cell growth, NCI panel, 48 h
Test [1] concerns IGROV1 ovarian.
The subject of test [2] is CAKI-1 renal.
Test [3] relates to MDA-MB-435.
Test [4] deals with UACC-62 melanoma.
Test [5] concerns MALME-3M melanoma.
Test [6] has as its system SF-268 CNS.
In test [7] the test system is SF-539 CNS.
Test [8] has as its system TK-10 renal.
In test [9] the test system is MDA-MB-231 breast.
The subject of test [10] is COLO 205 colon.

Each structure is given as a SMILES string.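 Each compound was tested at five concentrations against cells in 96-well plates for 48 hours. GI50: concentration for 50% inhibition of growth. Definition used: TGI = concentration required for complete inhibition of growth.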

In the case of `COc1ccc2nc(-c3ccccc3)cc(Nc3cccc(C(C)=O)c3)c2c1`, the GI50 in test [1] is 20.6 µM; in test [2], 12.6 µM; in test [3], 4.51 µM; in test [4], 15.4 µM; in test [5], 12.5 µM; in test [6], 2.22 µM. The GI50 in test [7] is 1.67 µM; in test [8], 12.6 µM; in test [9] it was 9.65 µM; in test [10] it was 6.58 µM. For the same compound, the TGI in [1] was > 100 µM; in test [2], 28.2 µM; in test [3] it was 17.1 µM; in test [4], 31.4 µM; in [5] it was 27.7 µM; in test [6], 8.61 µM. The TGI in test [7] was found to be 3.66 µM; in test [8], 28.5 µM; in test [9], 28.3 µM; in test [10], 41.1 µM.
As to `NC(=O)CC1(O)C=C(Br)C(=O)C(Br)=C1`, the GI50 in [1] is 6.57 µM; in test [2], 0.94 µM; in [3], 2.04 µM; in test [4], 4.21 µM; in [5], 2.12 µM; in test [6], 9.09 µM. For the same compound, the GI50 in test [7] was 2.95 µM; in [8], 1.65 µM; in test [9] it was 6.85 µM; in test [10], 1.25 µM. The TGI in test [1] came to 30 µM; in [2], 2.96 µM; in test [3] it was 7.31 µM; in test [4], 15.8 µM; in test [5], 4.36 µM; in test [6], 21.2 µM. The TGI in test [7] turned out to be 9.15 µM; in [8] it was 4.2 µM; in test [9], 20.2 µM; in test [10] it was 2.63 µM.
In the case of `O=c1c2ccccc2nc(-c2ccccc2Cl)n1-c1nnc(C(F)(F)F)s1`, the GI50 in test [1] was 4.17 µM; in test [2], 2.82 µM; in test [3] it was 3.19 µM; in test [4], 2.85 µM; in test [5] it was 2.51 µM; in [6] it was 4.36 µM. Also, the GI50 in test [7] is 3.21 µM; in [8], 3.99 µM; in test [9], 2.59 µM; in [10], 3.86 µM. Further, the TGI in test [1] was > 100 µM; in [2] it was 10.1 µM; in test [3], 53.1 µM; in [4], 14.4 µM; in [5], 7.35 µM; in [6] it was > 100 µM. Also, the TGI in test [7] turned out to be 13 µM; in [8], 24 µM; in test [9] it was 9.38 µM; in test [10] it was 21.3 µM.
On to `CCN(CC)CCC(CNc1ccnc2cc(Cl)ccc12)c1ccccc1` (centres undefined), for which the GI50 in test [1] was 7.98 µM; in test [2] it was 3.52 µM; in test [3] it was 2.01 µM; in test [4], 2.04 µM; in [5], 2.05 µM; in [6], 7.85 µM. Moreover, the GI50 in [7] was 1.81 µM; in test [8] it was 2.11 µM; in test [9], 2.18 µM; in [10], 1.45 µM. For the same compound, the TGI is 55.7 µM in [1]; 18.5 µM in test [2]; 5.02 µM in test [3]; 5.05 µM in test [4]; 3.88 µM in [5]; 41 µM in test [6]. Besides, the TGI was 4.11 µM in [7], 6.27 µM in [8], 15.8 µM in test [9] and 3.33 µM in test [10].
On to `O=c1ccc(=O)n(-c2ccccc2)[nH]1`, for which the TGI in test [1], in [2], in test [3], in test [4], in [5] and in test [6] was > 100 µM in each case. Moreover, the TGI in test [7], in test [8], in test [9] and in test [10] was > 100 µM throughout.
In the case of `COC(=O)C1(C)CC2C(C)(CCC3(C)C4=CC=C5C(=CC(=O)C(O)=C5C)C4(C)CCC23C)CC1O` (centres undefined), the TGI in test [1] is 1.18 µM; in test [2], 2.27 µM; in [3] it was 2.31 µM; in test [4], 2.32 µM; in test [5] it was 2.24 µM; in test [6], 2.63 µM. Also, the TGI in test [7] was 3.3 µM; in test [8] it was 1.59 µM; in test [9], 1.77 µM; in test [10] it was 1.72 µM.
As for `O=C(COc1ccc(OCC(=O)N2C(=O)CN(c3ccccc3)C2=S)cc1)N1C(=O)CN(c2ccccc2)C1=S`, the GI50 in [1] is 29.3 µM; in test [2] it was > 25 µM; in test [3], > 25 µM; in [4] it was > 25 µM; in test [5] it was 36.7 µM; in test [8], > 25 µM. Also, the GI50 in test [9] and in [10] was > 25 µM in each case. Moreover, the TGI in [1], in test [2], in test [3], in [4], in [5] and in test [6] was > 100 µM throughout. The TGI in [7], in test [8], in [9] and in test [10] was > 100 µM throughout.
Turning to `COc1cccc(C2=C(c3cn(C)c4cc(F)ccc34)C(=O)NC2=O)c1`, the GI50 was > 25 µM in test [1]; > 13.4 µM in [2]; 11.7 µM in test [3]; 14.3 µM in [4]; > 18 µM in test [5]; > 22.2 µM in test [6]. Besides, the GI50 in test [7] is > 25 µM; in test [8], > 16.9 µM; in [9], > 25 µM; in test [10] it was 10.9 µM. For the same compound, the TGI in test [1], in [2], in [3], in [4], in [5] and in [6] was > 25 µM throughout. For the same compound, the TGI in test [7], in [8], in test [9] and in test [10] was > 25 µM each time.
For the compound `CN1CCN(c2ccc(NC(=O)c3cncnc3Nc3ccc(OCc4cccc(F)c4)c(Cl)c3)cc2)CC1`, the GI50 in test [1] was 1.78 µM; in test [2] it was 1.48 µM; in test [3] it was 0.972 µM; in [4], 0.914 µM; in test [5], 0.85 µM; in test [6], 4.91 µM. The GI50 is 0.847 µM in test [7], 22.4 µM in test [8], 0.971 µM in test [9] and 0.799 µM in [10]. The TGI is > 50 µM in [1]; 6.01 µM in test [2]; 1.87 µM in test [3]; 1.74 µM in [4]; 1.74 µM in test [5]; 15.9 µM in [6]. Moreover, the TGI in test [7] was 1.6 µM; in test [8], > 50 µM; in test [9], 1.99 µM; in test [10], 1.54 µM.
For the compound `COc1cccc(/C=C/c2ccnc3ccccc23)c1OC`, the TGI in test [1], in test [2], in [3], in test [4], in test [5] and in test [6] was > 10 µM throughout. Moreover, the TGI in test [7], in test [8], in test [9] and in test [10] was > 10 µM each time.
For `O=C1c2cccnc2C(=O)c2c1c(C(=O)NCCn1ccnc1)c1ccccn21`, the GI50 in test [1] is 3.27 µM; in test [2], 15.1 µM; in test [3], 1.71 µM; in test [4], 1.84 µM; in test [5], 0.722 µM; in test [6], 2.86 µM. For the same compound, the GI50 in test [7] is 2.45 µM; in [9] it was 3.46 µM; in [10] it was 1.48 µM. Further, the TGI in test [1] was determined as 14.2 µM; in test [2], 34.5 µM; in [3], 3.13 µM; in [4], 4.4 µM; in test [5], 2.14 µM; in test [6], 16.8 µM. For the same compound, the results for the TGI in test [7], in [9] and in test [10] were 6.47 µM, > 100 µM and 3.17 µM, respectively.
For `O=C(CCl)Nc1cc(Cl)c(Cl)cc1Cl`, the TGI was 3.3 µM in test [1]; 4.88 µM in [2]; 2.77 µM in test [3]; 3.59 µM in test [4]; 2.88 µM in test [5]; 4.62 µM in [6]. Also, the TGI in test [7] turned out to be 3.04 µM; in [8] it was 3.27 µM; in test [9], 2.9 µM; in [10], 3.35 µM.
Regarding `Cc1ccc(NC(=O)Nc2c(Cl)cccc2Cl)cn1`, the GI50 in test [1] was 8.14 µM; in test [2] it was 5.78 µM; in test [3], 1.96 µM; in test [4], 5.76 µM; in [5] it was 8.57 µM; in test [6] it was 14.5 µM. Besides, the GI50 in [7] is 5.24 µM; in test [8], 18.1 µM; in [9], 7.66 µM; in test [10] it was 3.61 µM. In addition, the TGI in [1] was > 100 µM; in test [2], > 100 µM; in test [3], 4.69 µM; in test [4] it was > 100 µM; in [5], > 100 µM; in [6], > 100 µM. In addition, the TGI in test [7] is > 100 µM; in test [8] it was 41.6 µM; in [9] it was > 100 µM; in test [10], 24.3 µM.
Turning to `COc1cc(/C=C/C(=O)N2CCC=CC2=O)cc(OC)c1OC`, the GI50 is 2.21 µM in [1]; 2.21 µM in test [3]; 1.85 µM in [4]; 1.97 µM in test [5]; 3.2 µM in test [6]; 1.82 µM in test [7]. Besides, the GI50 was 2.99 µM in test [8], 3.38 µM in test [9] and 1.93 µM in test [10]. For the same compound, the TGI was 11.2 µM in test [1]; 6.05 µM in [3]; 3.82 µM in [4]; 3.97 µM in [5]; 12.6 µM in test [6]; 4.47 µM in [7]. The TGI in test [8] came out at 6.76 µM; in test [9], 10.8 µM; in [10], 4.14 µM.
In the case of `CCCCCCCCCCCCCCCCCCOc1ccccc1CC(=O)OCC[N+](CC)(CC)CC`, the GI50 in test [1] is 0.923 µM; in [2], 1.42 µM; in [3] it was 1.55 µM; in [4], 1.16 µM; in test [5], 1.31 µM; in test [6], 1.48 µM. Moreover, the GI50 in test [7] was 1.62 µM; in test [8], 1.45 µM; in test [9] it was 1.05 µM. For the same compound, the TGI amounted to 1.97 µM in test [1]; 4.47 µM in test [2]; 6.2 µM in test [3]; 3.37 µM in [4]; 3.77 µM in test [5]; 6.32 µM in [6]. The figures for the TGI in test [7], in test [8] and in test [9] were 5.82 µM, 7.65 µM and 2.7 µM, respectively.
`NC(Cc1c[nH]c2ccc(F)cc12)C(=O)O` (centres undefined): the GI50 is 1270 µM in test [2]; 785 µM in test [3]; 755 µM in test [4]; 490 µM in [5]; 677 µM in test [6]; 506 µM in [7]. In addition, the values for the GI50 in test [8], in [9] and in test [10] were > 2500 µM, 600 µM and 340 µM, respectively. Also, the TGI in test [2] was > 2500 µM; in test [3], > 2500 µM; in [4], > 2500 µM; in [5], 1130 µM; in [6] it was > 2500 µM; in test [7] it was 1590 µM. The results for the TGI in test [8], in [9] and in [10] were > 2500 µM, 1670 µM and 1010 µM, respectively.
For the compound `c1ccc(-c2n(Cc3ccc4ccccc4c3)cc[n+]2Cc2ccc3ccccc3c2)cc1`, the GI50 in test [1] was 0.651 µM; in test [3], 1.02 µM; in test [4], 0.447 µM; in test [5], 1.14 µM; in test [7], 1.45 µM; in test [8], 1.34 µM. For the same compound, in test [9], the GI50 is 1.07 µM. The TGI in test [1] was found to be 2.13 µM; in [3], 2.24 µM; in test [4], 1.73 µM; in test [5], 2.56 µM; in [7] it was 2.81 µM; in test [8], 2.83 µM. Moreover, the TGI in test [9] came to 2.35 µM.

The values above are taken from PubChem BioAssay (NCI).
